How the values were obtained:
[1] = test system: adenosine receptor; conditions: [3H]cyclohexyladenosine and [3H]1,3-diethyl-8-phenylxanthine; cited from earlier work
[2] = test system: adenosine receptors; conditions: pancreatic islets; cited from earlier work
[3] = test system: bak protein in HL-60 cells; assay: expression of apoptosis-inducing protein bak by immunofluorescence, HL-60 cells; type: cell-based; conditions: for bak labeling, HL-60: 24 hours
Description: (§1) Cells were fixed as following steps: 10 min with 1% formalin in PBS, 5 min with […] methanol and 2 min with ice cold acetone, then permebilized with 0.1% Nonidet P-40 for 20 min. After the preparation, the specimens were incubated step by step: 10% goat serum in PBS for 20 min, mouse monoclonal anti-bak antibody (5 μg/ml PBS-BSA) for 60 min, Rhodamine (TRITC)-conjugated AffiniPure Goat Anti-mouse IgG (H+L) in PBS-BSA for 60 min. The specimens were washed 3-5 times with PBS after every step. The glass slides were stored at 4° C. in the dark.
(§2) The mechanism of the apoptosis observed in response to either A3 agonists was investigated.

[4] = test system: HL-60 cells; assay: in situ end-labeling of fragmented nuclear DNA (TUNEL), HL-60 cells; type: cell-based; conditions: for fluorescent labeling of apoptotic cells, HL-60: 50 nM, 24 h, approximately; for Percentage of apoptotic cells, HL-60, + Cl-IB-MECA: antagonist 50 nM plus Cl-IB-MECA 10 nM; for Percentage of apoptotic cells, HL-60: antagonist 50 nM
Description: (§3) Cells were fixed by immersing slides in 4% methanol-free formaldehyde in PBS at pH 7.4, 4° C., for 25 min. Fixed cells were permeabilized in 0.2% Triton® X-100 in PBS at 4° C. for 5 min. After preincubation with […] Promega equilibration buffer for 10 min at room temperature, the cells were covered with 50 μl TdT incubation buffer and a coverslip and maintained at 37° C. for 60 min inside the dark humidified chamber to protect from dry and direct light. In order to stop the reaction, the coverslip was removed and the slides were immersed in 2×SSC for 15 min at room temperature. The cells were restained by propidium iodide 1 μg/ml in PBS for 15 min. After every step, the cells were rinsed 2-3 times with fresh PBS for 5 min each. Finally, the glass slides were sealed with nail polish. The slides were stored at 4° C. in the dark.
(§4) The evidence that DNA strand breaks, characteristic of apoptosis, are induced by the A3 antagonists was obtained using in situ end-labelingin-situ of fragmented nuclear DNA by terminal deoxynucleotidyl transferase (TUNEL method, Cooke, H., Trends in Biotech., 10, 23 (1992)), which incorporates a fluorescent label at the 3'-ends. […] In the control cultures and in those treated with 10 nM Cl-IB-MECA alone, spontaneous apoptosis occured in only 5-7% of the cells (Table 17). […] The reversal of antagonist-induced apoptosis by the agonist is similar to that observed for the growth curves, except that both agonist and antagonist were applied at lower concentrations.

[5] = test system: U-937 cells; assay: live cell counting with trypan blue (cell death/proliferation), U-937 cells; type: cell-based; conditions: for growth curve with A3 antagonist plus Cl-IB-MECA, U-937: antagonist 0.5 μM plus 0.01 or 1.0 μM Cl-IB-MECA
Description: (§5) The HL-60 cells were maintained in RPMI 1640 supplmented with 10% fetal calf serum, 100 units/ml penicillin, […] streptomycin and 2 mM L-glutamine. The cells were split every third day, and 2 days before each experiment cultures were diluted to 2×10^5 cells/ml. For analysis of DNA content, aliquots of 2 ml were placed into 12-well flat-bottomed plates (Costar, Cambridge, Mass., U.S.A.) containing 2~6 μl test-compound solutions at defined concentrations or 6 μl DMSO (diluting medium). Live cell counting was carried out using 0.1% trypan blue.
(§6) In the latter assay, cell death was studied in HL-60 cells (FIGS. 11A-B) and in U-937 cells (FIGS. 11C-D) over a time course of 9 days. Cells in culture receiving no drug treatment proliferated geometrically until nearly the end of the experiment.

[6] = test system: U-937 cells; assay: in situ end-labeling of fragmented nuclear DNA (TUNEL), U-937 cells; type: cell-based; conditions: for fluorescent labeling of apoptotic cells, U-937: 50 nM, 24 h, approximately; for Percentage of apoptotic cells, U937, + Cl-IB-MECA: antagonist 50 nM plus Cl-IB-MECA 10 nM; for Percentage of apoptotic cells, U937: antagonist 50 nM
Description: as §3, §4

[7] = test system: bak protein in U-937 cells; assay: expression of apoptosis-inducing protein bak by immunofluorescence, U-937 cells; type: cell-based; conditions: for bak labeling, U-937: 24 hours
Description: as §1, §2

[8] = test system: HL-60 cells; assay: live cell counting with trypan blue (cell death/proliferation), HL-60 cells; type: cell-based; conditions: for growth curve with A3 antagonist plus Cl-IB-MECA, HL-60: antagonist 0.5 μM plus 0.01 or 1.0 μM Cl-IB-MECA
Description: as §5, §6

[9] = test system: A3 specific binding; assay: A3 specific binding after blocking A1 and A2 specific binding sites with a xanthine amino congener; conditions: A1 and A2 sites blocked with xanthine amino congener
Excerpt: Adenosine receptors have been implicated in the bronchoconstriction (BC) in allergic asthma.

[10] = target: T1, A2a receptors (Rattus norvegicus, UniProt P30543); assay: radioligand binding, displacement of specific [3H]CGS 21680 binding in rat striatal membranes; conditions: Table 11; 10^-4 M; read-out: displacement of specific binding rA2A
T1 construct: Displacement of specific [^3 H]; from tissue; host or cells: rat striatal membranes
T1 sequence (P30543 whole entry): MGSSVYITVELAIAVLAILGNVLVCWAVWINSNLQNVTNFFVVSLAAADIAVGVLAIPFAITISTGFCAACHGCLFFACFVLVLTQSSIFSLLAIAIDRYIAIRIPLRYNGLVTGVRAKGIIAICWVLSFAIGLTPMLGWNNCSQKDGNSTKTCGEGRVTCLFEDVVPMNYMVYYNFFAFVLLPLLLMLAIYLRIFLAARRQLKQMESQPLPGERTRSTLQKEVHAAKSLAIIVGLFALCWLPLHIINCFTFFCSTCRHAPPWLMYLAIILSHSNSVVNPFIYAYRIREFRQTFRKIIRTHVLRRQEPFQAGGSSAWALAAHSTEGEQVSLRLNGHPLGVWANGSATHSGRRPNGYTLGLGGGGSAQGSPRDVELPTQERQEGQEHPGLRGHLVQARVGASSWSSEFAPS
Description: ^b Displacement of specific [^3 H]
or as a percentage of specific binding displaced at 100 μM.

[11] = test system: Female Mongolian gerbils; assay: bilateral carotid occlusion (stroke) in gerbils, survival and intact neurons; type: in vivo, Mongolian gerbil; conditions: for survival rate after ischemia: 100 μg/kg 15 min after occlusion; for intact neurons: 100 μg/kg
Description: Control gerbils were injected with saline. The survival of the animals was followed as a function of time after ischemia.
The number of intact neurons was also counted.

[12] = test system: rabbit lung; assay: bronchoconstriction / dynamic compliance (Cdyn) in allergic rabbits; type: in vivo, New Zealand white rabbit; conditions: antagonist 10^-5 M, 2 minute aerosol, co-administered with agonist
Description: New Zealand white pasteurella free rabbit litter mates were exposed to A3 adenosine agonist APNEA, IB-MECA, or Cl-IB-MECA and the percent change in dynamic compliance (Cdyn) was measured as a function of the adenosine dose using known procedures. […] Allergy was induced in the rabbits using dust mites.
The antagonist was administered at a constant dose of 10^-5 M through a 2 minute aerosilization, followed by a 15 minute wait before the measurement of dynamic compliance.

[13] = test system: HL-60 cells; assay: apoptosis by flow cytometric DNA analysis, HL-60 cells; type: cell-based
Description: DNA content analysis by flow cytometry:
(§8) Cells were fixed by adding ~10^7 cells suspended in 1 ml of PBS of 1 ml 80% ethanol at -20° C. and stored for 48-120 hrs. After the cells were washed twice with PBS, the cells were stained with 20 mg/ml chromomycin A3 dissolved in PBS containing 2 mM MgCl2 by incubation in subdued light (30 min; 4° C.). The cells were then analyzed using a FACScan flow cytometer (Becton Dickinson, Mountain View, Calif.).

[14] = test system: bak in 1321N astrocytoma cells; assay: expression of bak, 1321N cells; type: cell-based; conditions: 10 μM
Description: as §1
(§7) Various other cell lines were investigated for the expression of bak in response to the A3 agonist.

[15] = test system: U-937 cells; assay: apoptosis by flow cytometric DNA analysis, U-937 cells; type: cell-based
Description: DNA content analysis by flow cytometry:
as §8

[16] = test system: bak in MCF7 breast adenocarcinoma cells; assay: expression of bak, MCF7 cells; type: cell-based; conditions: 10 μM
Description: as §1, §7

[17] = 10 nM Cl-IB-MECA with either antagonist
[18] = 10 nM alone, range covers both cell lines and controls
[19] = Table 17, Cl-IB-MECA 10 nM, 48 hour
[20] = sublethal concentrations incl. 10 nM

COc1ccc(CCN(C)CCCC(C#N)(c2ccc(OC)c(OC)c2)C(C)C)cc1OC (stereo not drawn) [verapamil]
effect on adenosine receptor binding [1]: negligible effects on adenosine receptor binding
interaction with adenosine receptors mediating inhibition of insulin secretion [2]: may not interact with adenosine receptors

CN1C=CC2=C(CC(=O)O)Cn3nc(-c4ccccc4)nc3C2=C1 [Compound L-249313, 6-carboxymethyl-5,9-dihydro-9-methyl-2-phenyl-[1,2,4]triazolo[5,1-a][2,7]-naphthyridine]
bak labeling, HL-60 [3]: present
fluorescent labeling of apoptotic cells, HL-60 [4]: 30-40%
Percentage of apoptotic cells, HL-60, + Cl-IB-MECA ([4]; Table 17, 48 hour): 12.0 Percentage
Percentage of apoptotic cells, HL-60 ([4]; Table 17, 48 hour): 31.2 Percentage
inhibition of proliferation, U-937 ([5]; 0.5 μM alone): general inhibition of proliferation of cells
growth curve with A3 antagonist plus Cl-IB-MECA, U-937 [5]: the growth curves were nearly coincident with control curves
fluorescent labeling of apoptotic cells, U-937 [6]: 30-40%
Percentage of apoptotic cells, U937, + Cl-IB-MECA ([6]; Table 17, 48 hour): 10.9 Percentage
Percentage of apoptotic cells, U937 ([6]; Table 17, 48 hour): 30.8 Percentage
bak labeling, U-937 [7]: present
inhibition of proliferation, HL-60 ([8]; 0.5 μM alone): general inhibition of proliferation of cells
growth curve with A3 antagonist plus Cl-IB-MECA, HL-60 [8]: the growth curves were nearly coincident with control curves

COC(=O)C1=C(C)NC(C)=C(C(=O)OC)C1c1ccccc1[N+](=O)[O-] [Compound 60, nifedipine]
effect on adenosine receptor binding [1]: potent in reducing the binding
interaction with adenosine receptors mediating inhibition of insulin secretion [2]: may not interact with adenosine receptors

COc1ccc([C@@H]2Sc3ccccc3N(CCN(C)C)C(=O)[C@@H]2OC(C)=O)cc1 [diltiazem]
effect on adenosine receptor binding [1]: negligible effects on adenosine receptor binding

Nc1ccc(CCNc2ncnc3c2ncn3[C@@H]2O[C@H](CO)[C@@H](O)[C@H]2O)cc1 [APNEA]
displacement of A3 specific binding [9]: A3 specific binding was displaced

CCOC(=O)C1=C(C)NC(c2ccccc2)=C(C(=O)OCc2ccccc2)C1C#Cc1ccccc1 (stereo not drawn) [Compound 101]
bak labeling, HL-60 [3]: present
inhibition at 100 µM [10]: < 10%
survival rate after ischemia ([11]; after 7 days): 90%
survival rate after ischemia ([11]; after 90 days): 80%
intact neurons ([11]; after 7 days): 75%
intact neurons ([11]; after 90 days): 90%
fluorescent labeling of apoptotic cells, HL-60 [4]: 30-40%
Percentage of apoptotic cells, HL-60, + Cl-IB-MECA ([4]; Table 17, 48 hour): 11.6 Percentage
Percentage of apoptotic cells, HL-60 ([4]; Table 17, 48 hour): 39.7 Percentage
growth curve with A3 antagonist plus Cl-IB-MECA, U-937 [5]: the growth curves were nearly coincident with control curves
percent change in dynamic compliance (Cdyn) [12]: much reduced
fluorescent labeling of apoptotic cells, U-937 [6]: 30-40%
Percentage of apoptotic cells, U937, + Cl-IB-MECA ([6]; Table 17, 48 hour): 10.4 Percentage
Percentage of apoptotic cells, U937 ([6]; Table 17, 48 hour): 27.3 Percentage
bak labeling, U-937 [7]: present
growth curve with A3 antagonist plus Cl-IB-MECA, HL-60 [8]: the growth curves were nearly coincident with control curves

CNC(=O)[C@H]1O[C@@H](n2cnc3c(NCc4cccc(I)c4)nc(Cl)nc32)[C@H](O)[C@@H]1O [Cl-IB-MECA, N^6-(3-iodobenzyl)-2-chloro-adenosine-5'-N-methyluronamide]
concentration at which plateau of apoptosis begins, HL-60 ([13]; 48 hours): approximately 10 μM
plateau in the percent of apoptotic cells, HL-60 ([13]; 48 hours): 30-50%
apoptosis in HL-60 cells ([13]; high concentrations (≥μM)): caused apoptosis
apoptosis at lower concentrations, HL-60 ([13]; ≤1 μM): did not significantly promote apoptosis
expression of bak, 1321N [14]: found to induce the expression of bak
expression of bak, HL-60 ([3]; 30 μM): induced a significant level of expression of bak
expression of bak, HL-60 ([3]; ≤1 μM): not concentrations ≤1 μM
concentration at which plateau of apoptosis begins, U-937 ([15]; 48 hours): approximately 10 μM
plateau in the percent of apoptotic cells, U-937 ([15]; 48 hours): 30-50%
apoptosis in U-937 cells ([15]; high concentrations (≥μM)): A similar response was observed
apoptosis at lower concentrations, U-937 ([15]; ≤1 μM): did not significantly promote apoptosis
expression of bak, MCF7 [16]: found to induce the expression of bak
coadministration with antagonist, apoptotic cells, HL-60 [4, 17]: suppressed the increase in apoptotic cells
apoptosis (TUNEL), Cl-IB-MECA alone, HL-60 [4, 18]: 5-7%
DNA fragmentation labeling (TUNEL), HL-60 ([4]; 30 μM): approximately 50%
Percentage of apoptotic cells, HL-60, Cl-IB-MECA alone [4, 19]: 7.1 Percentage
growth curve, U-937 ([5]; 0.01 or 1.0 μM alone, 9 days): no deviation from this growth curve was observed
effect of agonist on impairment of proliferation by antagonist, U-937 [5, 20]: reversed the impairment of cell proliferation
general cell death at lower concentrations, U-937 ([5]; ≤1 μM, trypan blue): did not significantly promote
coadministration with antagonist, apoptotic cells, U-937 [6, 17]: suppressed the increase in apoptotic cells
apoptosis (TUNEL), Cl-IB-MECA alone, U-937 [6, 18]: 5-7%
DNA fragmentation labeling (TUNEL), U-937 ([6]; 30 μM): approximately 50%
Percentage of apoptotic cells, U937, Cl-IB-MECA alone [6, 19]: 5.6 Percentage
expression of bak, U-937 ([7]; 30 μM): induced a significant level of expression of bak
expression of bak, U-937 ([7]; ≤1 μM): not concentrations ≤1 μM
growth curve, HL-60 ([8]; 0.01 or 1.0 μM alone, 9 days): no deviation from this growth curve was observed
death of HL-60 cells in culture ([8]; 20 or 40 μM, after 4 days): > 90%
effect of agonist on impairment of proliferation by antagonist, HL-60 [8, 20]: reversed the impairment of cell proliferation
general cell death at lower concentrations, HL-60 ([8]; ≤1 μM, trypan blue): did not significantly promote
